Results published in US9593108B2, “Compounds and methods for antiviral treatment” (PTC Therapeutics, Inc., priority 2009, dated 2017).
pIC50: −log10 of the molar value.

What was measured:
[1] = tested on: HCV replicon RNA (GenBank Accession No. AJ242654); assay: HCV Replicon Assay (replicon RNA reduction and/or Fluc reporter signal); format: cell-based, Hepatitis C virus; conditions: Hepatitis C virus, 72 h, replicon-containing cells cultured with test compound for up to 3 days
Outline: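 Bicistronic replicon-containing cells cultured with compound for up to 3 days, with interferon as positive control. Inhibition quantified by replicon RNA reduction and/or Fluc reporter signal; IC50 values generally derived from replicon RNA reduction.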

Cc1cnc2c(c1)c(C#N)c(-c1ccc(S(=O)(=O)N[C@@H](C)C(F)(F)F)cn1)n2-c1ccc(F)c(F)c1 [Cpd 505, 6-[3-cyano-1-(3,4-difluorophenyl)-5-methyl-1H-pyrrolo[2,3-b]pyridin-2-yl]-N-[(2S)-1,1,1-trifluoropropan-2-yl]pyridine-3-sulfonamide]
pIC50 [1]: > 6.30
melting point: 250 to 252 °C

Cc1cnc2c(c1)c(C#N)c(-c1ccc(S(=O)(=O)N[C@@H](C)C(F)(F)F)cn1)n2-c1cc(F)cc(F)c1 [Cpd 506, 6-[3-cyano-1-(3,5-difluorophenyl)-5-methyl-1H-pyrrolo[2,3-b]pyridin-2-yl]-N-[(2S)-1,1,1-trifluoropropan-2-yl]pyridine-3-sulfonamide]
pIC50 [1]: > 6.30
melting point: 260 to 262 °C

Cc1cnc2c(c1)c(C#N)c(-c1ccc(S(=O)(=O)N[C@@H](C)C(F)(F)F)cn1)n2-c1cscn1 [Cpd 507, 6-[3-cyano-5-methyl-1-(1,3-thiazol-4-yl)-1H-pyrrolo[2,3-b]pyridin-2-yl]-N-[(2S)-1,1,1-trifluoropropan-2-yl]pyridine-3-sulfonamide]
pIC50 [1]: > 6.30
melting point: 186 to 188 °C

Cc1cnc2c(c1)c(C#N)c(-c1ccc(S(=O)(=O)N[C@@H](C)C(F)(F)F)cn1)n2-c1cc(C#N)ncn1 [Cpd 508, 6-[3-cyano-1-(6-cyanopyrimidin-4-yl)-5-methyl-1H-pyrrolo[2,3-b]pyridin-2-yl]-N-[(2S)-1,1,1-trifluoropropan-2-yl]pyridine-3-sulfonamide]
pIC50 [1]: > 6.30
melting point: 120 to 122 °C

CCc1cnc2c(c1)c(C#N)c(-c1ccc(S(=O)(=O)N[C@@H](C)C(F)(F)F)cn1)n2-c1cccs1 [Cpd 509, 6-[3-cyano-5-ethyl-1-(thiophen-2-yl)-1H-pyrrolo[2,3-b]pyridin-2-yl]-N-[(2S)-1,1,1-trifluoropropan-2-yl]pyridine-3-sulfonamide]
pIC50 [1]: > 6.30
melting point: 169 to 171 °C

CCc1cnc2c(c1)c(C#N)c(-c1ccc(S(=O)(=O)N[C@@H](C)C(F)(F)F)cn1)n2-c1ccc(F)cc1 [Cpd 510, 6-[3-cyano-5-ethyl-1-(4-fluorophenyl)-1H-pyrrolo[2,3-b]pyridin-2-yl]-N-[(2S)-1,1,1-trifluoropropan-2-yl]pyridine-3-sulfonamide]
pIC50 [1]: > 6.30
melting point: 212 to 214 °C

CCc1cnc2c(c1)c(C#N)c(-c1ccc(S(=O)(=O)N[C@@H](C)C(F)(F)F)cn1)n2-c1cccc(F)c1 [Cpd 511, 6-[3-cyano-5-ethyl-1-(3-fluorophenyl)-1H-pyrrolo[2,3-b]pyridin-2-yl]-N-[(2S)-1,1,1-trifluoropropan-2-yl]pyridine-3-sulfonamide]
pIC50 [1]: > 6.30
melting point: 195 to 197 °C

CCc1cnc2c(c1)c(C#N)c(-c1ccc(S(=O)(=O)N[C@@H](C)C(F)(F)F)cn1)n2-c1nccs1 [Cpd 512, 6-[3-cyano-5-ethyl-1-(1,3-thiazol-2-yl)-1H-pyrrolo[2,3-b]pyridin-2-yl]-N-[(2S)-1,1,1-trifluoropropan-2-yl]pyridine-3-sulfonamide]
pIC50 [1]: > 6.30
melting point: 229 to 231 °C

[2H]C(C)(C)NS(=O)(=O)c1ccc(-c2c(C#N)c3cc(C(F)(F)F)cnc3n2C2CCC2)nc1 [Cpd 513, 6-[3-cyano-1-cyclobutyl-5-(trifluoromethyl)-1H-pyrrolo[2,3-b]pyridin-2-yl]-N-[(2-deuterium)propan-2-yl]pyridine-3-sulfonamide]
pIC50 [1]: > 6.30
melting point: 191 to 193 °C

Cc1cnc2c(c1)c(C#N)c(-c1ccc(S(=O)(=O)N[C@@H](C)C(F)(F)F)cn1)n2-c1nc(C#N)cs1 [Cpd 514, 6-[3-cyano-1-(4-cyano-1,3-thiazol-2-yl)-5-methyl-1H-pyrrolo[2,3-b]pyridin-2-yl]-N-[(2S)-1,1,1-trifluoropropan-2-yl]pyridine-3-sulfonamide]
pIC50 [1]: 5.70 to 6.30
melting point: 259 to 261 °C

CC(C)(C)NS(=O)(=O)c1ccc(-c2c(C#N)c3cc(Cl)cnc3n2-c2nccs2)nc1 [Cpd 515, N-tert-butyl-6-[5-chloro-3-cyano-1-(1,3-thiazol-2-yl)-1H-pyrrolo[2,3-b]pyridin-2-yl]pyridine-3-sulfonamide]
pIC50 [1]: > 6.30
melting point: 216 to 218 °C

CC(C)(C)NS(=O)(=O)c1ccc(-c2c(C#N)c3cc(C(F)(F)F)cnc3n2-c2ccccc2)nc1 [Cpd 516, N-tert-butyl-6-[3-cyano-1-phenyl-5-(trifluoromethyl)-1H-pyrrolo[2,3-b]pyridin-2-yl]pyridine-3-sulfonamide]
pIC50 [1]: > 6.30
melting point: 201.2 to 202.4 °C

CC(C)(C)NS(=O)(=O)c1ccc(-c2c(C#N)c3cc(C(F)(F)F)cnc3n2-c2ccc(F)cc2)nc1 [Cpd 517, N-tert-butyl-6-[3-cyano-1-(4-fluorophenyl)-5-(trifluoromethyl)-1H-pyrrolo[2,3-b]pyridin-2-yl]pyridine-3-sulfonamide]
pIC50 [1]: 5.70 to 6.30
melting point: 228.3 to 229.4 °C

CC(C)(C)NS(=O)(=O)c1ccc(-c2c(C#N)c3cc(C(F)(F)F)cnc3n2-c2ccccn2)nc1 [Cpd 518, N-tert-butyl-6-[3-cyano-1-(pyridin-2-yl)-5-(trifluoromethyl)-1H-pyrrolo[2,3-b]pyridin-2-yl]pyridine-3-sulfonamide]
pIC50 [1]: > 6.30
melting point: 210.4 to 211.8 °C

CC(C)(C)NS(=O)(=O)c1ccc(-c2c(C#N)c3cc(F)cnc3n2-c2ccccc2)nc1 [Cpd 519, N-tert-butyl-6-(3-cyano-5-fluoro-1-phenyl-1H-pyrrolo[2,3-b]pyridin-2-yl)pyridine-3-sulfonamide]
pIC50 [1]: > 6.30
melting point: 239.4 to 241.5 °C

CC(C)(C)NS(=O)(=O)c1ccc(-c2c(C#N)c3cc(F)cnc3n2-c2ccc(F)cc2)nc1 [Cpd 520, N-tert-butyl-6-[3-cyano-5-fluoro-1-(4-fluorophenyl)-1H-pyrrolo[2,3-b]pyridin-2-yl]pyridine-3-sulfonamide]
pIC50 [1]: 5.30 to 5.70
melting point: 259.1 to 260.7 °C

CC(C)(C)NS(=O)(=O)c1ccc(-c2c(C#N)c3cc(F)cnc3n2-c2cnccn2)nc1 [Cpd 521, N-tert-butyl-6-[3-cyano-5-fluoro-1-(pyrazin-2-yl)-1H-pyrrolo[2,3-b]pyridin-2-yl]pyridine-3-sulfonamide]
pIC50 [1]: > 6.30
melting point: 245 to 247 °C

CC(C)(C)NS(=O)(=O)c1ccc(-c2c(C#N)c3cc(F)cnc3n2-c2ccccn2)nc1 [Cpd 522, N-tert-butyl-6-[3-cyano-5-fluoro-1-(pyridin-2-yl)-1H-pyrrolo[2,3-b]pyridin-2-yl]pyridine-3-sulfonamide]
pIC50 [1]: > 6.30
melting point: 202.2 to 204.3 °C

CC(C)(C)NS(=O)(=O)c1ccc(-c2c(C(N)=O)c3cc(C(F)(F)F)cnc3n2-c2ccccc2)nc1 [Cpd 523, 2-[5-(tert-butylsulfamoyl)pyridin-2-yl]-1-phenyl-5-(trifluoromethyl)-1H-pyrrolo[2,3-b]pyridine-3-carboxamide]
pIC50 [1]: > 6.30
melting point: 241.8 to 243 °C

Cc1cnc2c(c1)c(C#N)c(-c1ccc(S(=O)(=O)NC(C)(C)C)cn1)n2-c1ccccc1 [Cpd 524, N-tert-butyl-6-(3-cyano-5-methyl-1-phenyl-1H-pyrrolo[2,3-b]pyridin-2-yl)pyridine-3-sulfonamide]
pIC50 [1]: 5.70 to 6.30
melting point: 228.6 to 229.3 °C

Cc1cnc2c(c1)c(C#N)c(-c1ccc(S(=O)(=O)NC(C)(C)C)cn1)n2-c1ccccn1 [Cpd 525, N-tert-butyl-6-[3-cyano-5-methyl-1-(pyridin-2-yl)-1H-pyrrolo[2,3-b]pyridin-2-yl]pyridine-3-sulfonamide]
pIC50 [1]: 5.70 to 6.30
melting point: 214.2 to 215.4 °C

CC(C)(C)NS(=O)(=O)c1ccc(-c2c(C#N)c3cc(C(F)(F)F)cnc3n2-c2cnccn2)nc1 [Cpd 526, N-tert-butyl-6-[3-cyano-1-(pyrazin-2-yl)-5-(trifluoromethyl)-1H-pyrrolo[2,3-b]pyridin-2-yl]pyridine-3-sulfonamide]
pIC50 [1]: > 6.30
melting point: 214.2 to 215.4 °C

CC(C)(C)NS(=O)(=O)c1ccc(-c2c(C(N)=O)c3cc(F)cnc3n2-c2ccccc2)nc1 [Cpd 527, 2-[5-(tert-butylsulfamoyl)pyridin-2-yl]-5-fluoro-1-phenyl-1H-pyrrolo[2,3-b]pyridine-3-carboxamide]
pIC50 [1]: 5.70 to 6.30
melting point: 275.2 to 276.9 °C
